According to patent US20110112299A1, “TETRACYCLIC COMPOUND” (KYOWA HAKKO KIRIN CO., LTD., priority 2008, published 2011):

Legend:
[1] = test system: transcription-promoting activity via the glucocorticoid receptor (A549/MMTV-LTR cells); format: cell-based; conditions: at a concentration of 300 nmol/L; relative to dexamethasone
Protocol: A pGL4.14 plasmid (Promega, product number: AY864928) having a cloned MMTV-LTR fragment upstream of the luciferase gene (−200 to +100 relative to the transcription initiation site) was introduced into A549 cells, and the obtained strain which is constitutively resistant to a selective antibiotic hygromycin B (A549/MMTV-LTR) was used for evaluation. The A549/MMTV-LTR cells were transferred to a 96-well plate (25000 cells/well) and were cultured overnight. […] Next, 20 μL of the test compound diluted to 5-fold of the desired concentration with F-12 medium or 20 μL of 4 μmol/L dexamethasone was added thereto, and the mixture was incubated under 5% CO2 at 37° C. for 6 hours. To each well, 50 μL of a luminescence reagent (Promega, product number: E2550 or E2650) was added, and the mixture was stirred to dissolve the cells, and the luciferase activity was measured by a plate reader (PerkinElmer, TopCount).
MMTV activity (%)=100×(luminescence amount in the presence of the compound−luminescence amount in the absence of the compound)/(luminescence amount in the presence of dexamethasone−luminescence amount in the absence of the compound)

[2] = test system: IL-1β induced IL-6 production (A549 cells); assay: Inhibition assay for IL-1β induced IL-6 production in A549 cells (Test Example 3); format: cell-based, human; conditions: at a concentration of 100 nmol/L, IL-1β stimulation, relative to dexamethasone
Protocol: A549 cells cultured in F-12 medium supplemented with 10% bovine serum for 3 to 5 days were transferred to a 96-well plate (50000 cells/well) and then were cultured overnight. […] After the medium was removed by suction, 60 μL of F-12 medium was added to each well, and 20 μL of the test compound diluted to 5-fold of the desired concentration with F-12 medium or 20 μL of 4 μmol/L dexamethasone was added thereto. The test compound and the dexamethasone used here were prepared beforehand by dissolving in dimethyl sulfoxide (DMSO) and diluting with F-12 medium so that the final concentration of DMSO became 0.1% v/v or lower. After 30-minute incubation under 5% CO2 atmosphere at 37° C., 20 μL of 4 nmol/L IL-1β diluted with F-12 medium was added to each well, and then incubation was performed under a 5% CO2 atmosphere at 37° C. for 12 to 18 hours. The 96-well plate was centrifuged at 300×g at 4° C. for 5 minutes, and then the culture supernatant was collected for use as a sample for IL-6 measurement. The IL-6 produced in the culture supernatant was quantified by the ELISA method (R&D Systems, product number: DY206, DouSet ELISA Development System Human IL-6), and the production inhibition rate was calculated by the following formula. […]

[3] = molecular target: T1, recombinant human glucocorticoid receptor (Homo sapiens, UniProt P04150); assay: Human glucocorticoid receptor assay (fluorescence polarization, Test Example 1); format: binding
T1 construct: purchased Panvera/Invitrogen P2812 (kit P2893)
T1 sequence (P04150 1-777): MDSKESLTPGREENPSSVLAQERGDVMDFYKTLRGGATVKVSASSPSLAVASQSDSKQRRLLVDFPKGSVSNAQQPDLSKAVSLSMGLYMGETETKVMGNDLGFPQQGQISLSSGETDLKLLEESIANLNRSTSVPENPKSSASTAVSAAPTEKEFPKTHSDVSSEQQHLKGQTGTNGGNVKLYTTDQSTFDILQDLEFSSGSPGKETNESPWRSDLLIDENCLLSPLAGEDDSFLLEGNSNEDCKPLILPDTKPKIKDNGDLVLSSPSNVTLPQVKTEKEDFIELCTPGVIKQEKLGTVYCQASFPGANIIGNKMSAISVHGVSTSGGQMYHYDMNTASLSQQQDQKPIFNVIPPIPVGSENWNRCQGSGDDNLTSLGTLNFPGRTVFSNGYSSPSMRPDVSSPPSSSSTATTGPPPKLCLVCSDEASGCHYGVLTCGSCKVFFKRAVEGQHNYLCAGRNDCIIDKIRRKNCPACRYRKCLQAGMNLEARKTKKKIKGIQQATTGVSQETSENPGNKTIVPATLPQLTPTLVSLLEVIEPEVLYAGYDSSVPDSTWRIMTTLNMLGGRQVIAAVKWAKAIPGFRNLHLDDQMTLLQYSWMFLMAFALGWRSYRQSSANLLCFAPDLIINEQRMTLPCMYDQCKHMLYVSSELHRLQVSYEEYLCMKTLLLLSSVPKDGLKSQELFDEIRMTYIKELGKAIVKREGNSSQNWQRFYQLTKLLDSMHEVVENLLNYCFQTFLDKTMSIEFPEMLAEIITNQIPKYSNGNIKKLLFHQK
Protocol: In this assay, a fluorescence polarization assay kit (Panvera/Invitrogen, product number: P2893) was used. The recombinant human glucocorticoid receptor (product number: P2812), the Fluoromore (trademark)-labeled dexamethasone (GS Green, product number: P2813), the stabilizing peptide solution (product number: P2815), and the basic buffer solution (product number: P2814) which were used in the assay kit had been stored at −80° C. until used. A buffer solution for the assay was prepared by adding the basic buffer solution (10 fold dilution), the stabilizing peptide solution (10 fold dilution), and 1 mol/L DTT (1000 fold dilution to give a final concentration of 1 mmol/L).
The assay was performed as follows. […] The fluorescence polarization value of each well was measured using a plate reader (PerkinElmer, Fusion or Envision). […] To a positive control group, dexamethasone was added so as to give a final concentration of 1 μmol/L. The glucocorticoid receptor binding rate (%) was calculated by the following formula.
Glucocorticoid receptor binding rate (%)=100×[1-(fluorescence polarization value of test compound solution−fluorescence polarization value of positive control solution)/(fluorescence polarization value of negative control solution−fluorescence polarization value of positive control solution)]

## CC/C(=C1\c2cc3cnn(C)c3cc2COc2ccccc21)c1cccc(NS(C)(=O)=O)c1 [Compound 2, (Z)-5-{1-[3-(methanesulfonamide)phenyl]propylidene}-1-methyl-5,11-dihydrobenzo[6,7]oxepino[4,3-f]indazole]
[1]
  MMTV activity: ≤ 10%
[2]
  IL-6 production inhibitory activity: ≥ 80%
[3]; at a concentration of 100 nmol/L or higher
  inhibitory activity (glucocorticoid receptor binding rate): ≥ 80%
[3]; from the results of Test Examples 1 and 2
  selectivity for human glucocorticoid receptor over progesterone receptor: selective inhibitory activity to human glucocorticoid receptors
